Experiments:
[1] = test system: insulin-secreting pancreatic beta cells; assay: Pancreatic beta cell viability / apoptosis after streptozotocin challenge; format: cell-based
Text: Data are presented as mean±standard error.

F4/80+CD11b+ macrophages = assay: Macrophage infiltration into white adipose tissue of db/db mice, flow cytometry; format: in vivo; settings: day 60
Protocol: (§1) Obese db/db mice were fed high-fat diets containing 0, 15, or 70 mg/kg diet rosiglitazone maleate (control, Ros^lo, and Ros^hi, respectively) with and without racemic ABA (100 mg/kg diet). On day 60 the percent of F4/80+CD11b+ in the stromal vascular fractions of abdominal white adipose tissue (Ab. WAT) (A) and subcutaneous WAT (B) were assessed by flow cytometry. The percent of CD11b+CCR2+ monocytes (C) and CD4+CD25+FoxP3+ Tregs (D) in blood were assessed in whole blood. The expressions of the M1 marker CCL17 (E) and peroxisome proliferator activated receptor γ (PPAR γ) (F) in Ab. WAT were calculated as a ratio to the housekeeping gene f3-actin. Data are represented as mean±standard error.
(§2) Mice (n=40) were fed one of six experimental diets: a control high-fat diet (control), a high-fat diet containing low dose rosiglitazone maleate (Ros^lo, 10 mg/kg diet), or a high-fat diet containing a high dose of rosiglitazone maleate (Ros^hi, 70 mg/kg diet), each with or without all racemic ABA (100 mg/kg, Sigma Aldrich, St. Louis, Mo.) for 60 days. […] Blood glucose levels were assessed with an ACCU-CHEK® Glucometer (Roche, Indianapolis, Ind.). An intraperitoneal glucose tolerance test (IPGTT, 1 g glucose/kg body weight) was conducted on fasted mice (12 h) for 0, 30, 90, and 180 minute time points and insulin levels were measured on day 54. […]

[2] = Systolic blood pressure in ApoE-deficient mice; format: in vivo
[3] = test system: retinoic acid receptor (RAR); assay: RAR luciferase reporter in transfected 3T3-L1 preadipocytes; format: cell-based; settings: ABA 10 μM with retinoic acid 10 μM
Protocol: A pCMX.L-RXR or pCMX.RAR expression plasmid and a luciferase reporter plasmid were purified using Qiagen's Maxi kit (Valencia, Calif.). 3T3-L1 preadipocytes (American Type Culture Collection, Manassas, Va.) were grown in DMEM high glucose medium (Invitrogen, Carlsbad, Calif.) containing 10% fetal bovine serum (FBS). The cells cultured in 25 cm^2 flasks were co-transfected with 0.6 ug plasmid DNA and 1 ng of pRL reporter control plasmid per well using F-2 transfection reagents (Targeting Systems, Santee, Calif.) according to the manufacturer's protocol. After 24 hours, transfected cells were split trypsin and seeded into 96-well white plates at a concentration of 20,000 cells/wells. The transfected cells were then treated with 9-cis retinoic acid (0, 10 μM; Sigma), or retinoic acid (RA, 10 μM; Sigma), with ABA (10 μM; Sigma) Transfected cells were harvested in reporter lysis reagent. Luciferase activity, normalized to pRL activity in the cell extracts was determined by using the dual luciferase reporter assay system (Promega, Madison, Wis.) in a Modulus 96-well plate reader (Turner Biosystems, Sunnyvale, Calif.). Relative luciferase activity (RLA) was calculated as a ratio of the chemiluminescence 10 seconds after the Luciferase Assay Reagent II (Promega) was added over the chemiluminescence 10 seconds after the Stop&Glo Reagent (Promega).

[4] = test system: blood CCR2+CD11b+ monocytes and regulatory T cells (Tregs); assay: Blood immune cell populations of db/db mice, flow cytometry; format: in vivo; settings: whole blood
Protocol: as §1, §2

**Q.** For CC1=CC(=O)CC(C)(C)C1(O)/C=C/C(C)=C\C(=O)O (racemic) [ABA, abscisic acid], which “viability of insulin-secreting pancreatic beta cells” value ([1]; ABA 1 and 10 micromolar, streptozotocin (STZ) 2 mM for 24 hours) is on record?
**A.** Its value is “increases”.

**Q.** And the “pancreatic beta cell apoptosis caused by streptozotocin” value ([1]; FIG. 4)?
**A.** The value was “diminishes”.

**Q.** And the “ATM infiltration in SCAT” value (F4/80+CD11b+ macrophages; db/db mice fed the control and Ros^lo diets)?
**A.** The value was “significantly reduced”.

**Q.** What about the “macrophage (ATM) infiltration into Ab. WAT” value (F4/80+CD11b+ macrophages; db/db mice, ABA 100 mg/kg diet, Ros^lo, or both, relative to the control diet) of the same compound?
**A.** Its value is “little effect”.

**Q.** And the systolic blood pressure [2]?
**A.** Its systolic blood pressure is “lowers”.

**Q.** What about the “activity of RAR ligands” value [3] of the same compound?
**A.** The value was “synergistically enhances”.

**Q.** What about the “blood CCR2+CD11b+ monocyte levels” value [4] of the same compound?
**A.** Its value is “mitigated”.

**Q.** And the “percentages of blood regulatory T cells (Tregs)” value ([4]; independently of Ros)?
**A.** The value was “increased”.
